{"source": "patent US6828328B1", "about": "“Analgesic combination of muscarinic agonists” (UCB s.A., priority 2002, dated 2004)", "key": {"CD-1 female mice [1]": {"system": "CD-1 female mice", "assay": "observation of muscarinic side effects (tremor, sedation, salivation)", "format": "in vivo, mouse", "settings": "at its ED50 dose", "protocol": "(§1) Observations of tremor, sedation, and salivation were made by close visual inspection of the mice at 5, 15, 30 and 60 minutes after injection of 4-s-[4-propylsulfanyl)-1,2,5-thiadiazol-3-yl]-1-azatricyclo[3.3.1.1<3,7>]decane hydrochloride. Tremor and sedation were scored as +(indicated visible tremor or sedation) or −(indicated non-visible tremor or sedation). Salivation was scored according to the following scale: 0, no sign of saliva within animal's mouth; 1, evidence of saliva in animal's mouth, but not on animal's muzzle; and 2, evidence of saliva in animal's mouth and on muzzle. No other muscarinic receptor mediated activities were observed.\nas §1, with “4-s-[4-(propylsulfanyl)-1,2,5-thiadiazol-3-yl]-1-azatricyclo[3.3.1.1<3,7>]decane” for “4-s-[4-propylsulfanyl)-1,2,5-thiadiazol-3-yl]-1-azatricyclo[3.3.1.1<3,7>]decane”"}, "CD-1 female mice [2]": {"system": "CD-1 female mice", "assay": "mouse tail-flick test (antinociception, %MPE)", "format": "in vivo", "settings": "for antinociception (%MPE): at 30 min", "from_the_text": "Its antinociception (analgesia) in vivo had been investigated using the mouse tail flick test. The mouse tail-flick test is a well-known experimental model to verify the analgesic activity of potential moderate and severe pain relievers including muscarinic agonists (Chau, T. T: Analgesic Testing in Animal Models. Pharmacological Methods in the Control of Inflammation. 195-212. 1989, Alan R. Liss. Inc.). […] Other possible muscarinic agonist activities, such as tremor, sedation, salivation, and hypothermia were observed simultaneously.\n(§2) Experiments were carried out using a commercially available tail-flick analgesia meter (model TF-6 analgesia meter, Emdie Instrument Company, Maidens, Va., USA). […] A 10-second cutoff time was used as the maximum latency to avoid tissue damage.\n(§3) Control animals received the corresponding vehicle(s) by the same route of administration.\nThe percentage of maximum possible effect (%MPE) was calculated as follows:\n%MPE=[(postdrug latency−predrug latency)÷(cutoff time−predrug latency)]×100%.\n(§4) All results were expressed as mean±SEM. […] This comparison was carried out at the peak of antinociception (30 minutes). Student's T test (one tailed analysis)(Microsoft Excel 97, Microsoft Corporation, Redmond, Wash., USA) was used to analyse the statistical significance between the two groups. The value of p<0.05 was considered as statistically significant.\nas §2, §3\nas §4, with “minutes). One tailed” for “minutes).”, “(Microsoft” for “(one tailed analysis)(Microsoft”, “[…],” for “Redmond,”, “analysis” for “analyse”"}}, "note": "Values joined by “and” are separate entries in the source; they are usually repeats but may differ in a detail not shown here. Equal entries are not always repeated."}
{"smiles": "CCCSc1nsnc1[C@H]1[C@@H]2C[C@@H]3C[C@H]1CN(C3)C2.Cl", "note": "[4-s-[4-(propylsulfanyl)-1,2,5-thiadiazol-3-yl]-1-azatricyclo[3.3.1.1<3,7>]decane hydrochloride]", "values": [{"measurement": "incidence of muscarinic side effects", "setting": "CD-1 female mice [1]", "value": "low incidence"}, {"measurement": "antinociception (%MPE)", "setting": "CD-1 female mice [2]; 0.03 mg/kg sc alone, hydrochloride", "value": 19, "unit": "%"}, {"measurement": "antinociception (%MPE)", "setting": "CD-1 female mice [2]; 0.05 mg/kg sc alone", "value": 38, "unit": "%"}, {"measurement": "antinociceptive potency relative to morphine", "setting": "CD-1 female mice [2]; mouse tail-flick test, more potent than morphine", "value": "300-1000 fold"}]}
{"smiles": "CS(=O)(=O)Nc1ccc([N+](=O)[O-])cc1OC1CCCCC1", "note": "[NS-398]", "values": [{"measurement": "antinociceptive effect", "setting": "CD-1 female mice [2]; NS-398 0.05 mg/kg ip alone", "value": "without antinociceptive effect"}]}
{"smiles": "CC(=O)Nc1ccc(O)cc1", "note": "[acetaminophen]", "values": [{"measurement": "antinociceptive effect", "setting": "CD-1 female mice [2]; acetaminophen 60 mg/kg ip alone", "value": "without antinociceptive effect"}]}
{"smiles": "CC(C)Cc1ccc(C(C)C(=O)O)cc1", "note": "(stereo not drawn) [ibuprofen]", "values": [{"measurement": "antinociceptive effect", "setting": "CD-1 female mice [2]; ibuprofen 50 mg/kg ip alone", "value": "without antinociceptive effect"}]}
{"smiles": "CN1CC[C@]23c4c5ccc(O)c4O[C@H]2[C@@H](O)C=C[C@H]3[C@H]1C5", "note": "[morphine]", "values": [{"measurement": "antinociception (%MPE)", "setting": "CD-1 female mice [2]; morphine 3 mg/kg sc alone", "value": "13% and 25%"}, {"measurement": "antinociception (%MPE)", "setting": "CD-1 female mice [2]; morphine 5.0 mg/kg sc alone", "value": 35, "unit": "%"}]}
